# Measurements published in patent US20140212382A1, “PURINE MONOPHOSPHATE PRODRUGS FOR TREATMENT OF VIRAL INFECTIONS” (EMORY UNIVERSITY, priority 2011, published 2014).
# Read-outs that look alike come from different tables or passages of the source.
# Experiments:
# PBM cells = test: Cellular pharmacology in PBM cells (LC-MS/MS of intracellular metabolites); assay type: in vitro ADME; details: 50 μM, 4 h, 37° C.
# Procedure: Test compounds are incubated in PBM cells at 50 μM for 4 h at 37° C. Then the drug containing media is removed and the PBM cells are washed twice with PBS to remove extracellular drugs. The intracellular drugs are extracted from 10×10^6 PBM cells using 1 mL 70% ice-cold methanol (containing 10 nM of the internal standard ddATP). Following precipitation, the samples are maintained at room temperature for 15 min followed by vortexing for 30 sec, and then stored 12 h at −20° C. The supernatant is then evaporated to dryness. Dry samples would be stored at −20° C. until LC-MS/MS analysis. Prior to analysis, each sample is reconstituted in 100 μL mobile phase A, and centrifuged at 20,000 g to remove insoluble particulates.
# Gradient separation is performed on a Hypersil GOLD column (100×1.0 mm, 3 μm particle size; Thermo Scientific, Waltham, Mass., USA). Mobile phase A consists of 2 mM ammonium phosphate and 3 mM hexylamine. Acetonitrile is increased from 10 to 80% in 15 min, and kept at 80% for 3 min. Equilibration at 10% acetonitrile lasts 15 min. The total run time is 33 min. The flow rate is maintained at 50 μL/min and a 10 μL injection is used. The autosampler and the column compartment are typically maintained at 4.5 and 30° C., respectively.
# The first 3.5 min of the analysis is diverted to waste. The mass spectrometer is operated in positive ionization mode with a spray voltage of 3.2 kV.
# [1] = test system: HCV Replicon RNA in Huh 7 Clone B cells; test: HCV replicon assay; assay type: cell-based; details: Hepatitis C virus
# Procedure: (§1) Huh 7 Clone B cells containing HCV Replicon RNA were seeded in a 96-well plate at 5000 cells/well, and the compounds tested at 10 μM in triplicate immediately after seeding. Following five days incubation (37° C., 5% CO2), total cellular RNA was isolated using the versaGene RNA purification kit from Gentra. Replicon RNA and an internal control (TaqMan rRNA control reagents, Applied Biosystems) were amplified in a single step multiplex Real Time RT-PCR Assay. The antiviral effectiveness of the compounds was calculated by subtracting the threshold RT-PCR cycle of the test compound from the threshold RT-PCR cycle of the no-drug control (ΔCt HCV). A ΔCt of 3.3 equals a 1-log reduction (equal to 90% less starting material) in Replicon RNA levels. The cytotoxicity of the compounds was also calculated using the ΔCt rRNA values. (2′-C-Me-C) was used as the control. To determine EC90 and IC50 values^2, ΔCt: values were first converted into a fraction of the starting material,^3 and then were used to calculate the % inhibition. The data on three compounds (Compound 12, Compound 8a, and compound 8b-up) is shown below in Table 3.
# [2] = Cytotoxicity in HCV replicon assay (ΔCt rRNA); assay type: cell-based; details: human, HCV Replicon (Huh7)
# Procedure: as §1
# [3] = test system: MtDNA, HepG2 Hepatoma cells; test: Mitochondrial toxicity in HepG2 cells: mitochondrial DNA content; assay type: cell-based
# Source text: A real-time PCR assay to accurately quantify mitochondrial DNA content has been developed (see Stuyver L J, Lostia S, Adams M, Mathew J S, Pai B S, Grier J, Tharnish P M, Choi Y, Chong Y, Choo H, Chu C K, Otto M J, Schinazi R F. Antiviral activities and cellular toxicities of modified 2′,3′-dideoxy-2′,3′-didehydrocytidine analogs. Antimicrob. Agents Chemother. 2002; 46: 3854-60). This assay was used in all studies described in this application that determine the effect of nucleoside analogs on mitochondrial DNA content. In this assay, low-passage-number HepG2 cells were seeded at 5,000 cells/well in collagen-coated 96-well plates. Nucleoside monophosphate analogs were added to the medium to obtain final concentrations of 0 μM, 0.1 μM, 10 μM and 100 μM. On culture day 7, cellular nucleic acids were prepared by using commercially available columns (RNeasy 96 kit; Qiagen). […] The mitochondrial cytochrome c oxidase subunit II (COXII) gene and the β-actin or rRNA gene were amplified from 5 μl of the eluted nucleic acids using a multiplex Q-PCR protocol with suitable primers and probes for both target and reference amplifications. For COXII the following sense, probe and antisense primers are used, respectively: 5′-[…]-3′,5′-tetrachloro-6-carboxyfluorescein-[…]-TAMRA-3′ and 5′-[…]-3′. For exon 3 of the β-actin gene (GenBank accession number E01094) the sense, probe, and antisense primers are 5′-[…]-3′,5′-6-[…]-3′ and 5′-[…]-3′, respectively. The primers and probes for the rRNA gene are commercially available from Applied Biosystems. Since equal amplification efficiencies were obtained for all genes, the comparative CT method was used to investigate potential inhibition of mitochondrial DNA synthesis. The comparative CT method uses arithmetic formulas in which the amount of target (COXII gene) is normalized to the amount of an endogenous reference (the β-actin or rRNA gene) and is relative to a calibrator (a control with no drug at day 7). The arithmetic formula for this approach is given by 2-ΔΔCT, where ΔΔCT is (CT for average target test sample−CT for target control)−(CT for average reference test−CT for reference control) (see Johnson M R, K Wang, J B Smith, M J Heslin, R B Diasio. Quantitation of dihydropyrimidine dehydrogenase expression by real-time reverse transcription polymerase chain reaction. Anal. Biochem. 2000; 278:175-184). A decrease in mitochondrial DNA content in cells grown in the presence of drug would indicate mitochondrial toxicity.
# (§2) The effect of compounds 8b-up, 12, and 8a on nuclear or mitochondrial DNA, or lactic acid production, in HepG2 Hepatoma cells was analyzed over a 14 day period. The procedure outlined in section (i) above was used for this analysis.
# Huh7 cells = test: Cellular pharmacology in Huh7 cells (LC/MS of nucleotides formed); assay type: in vitro ADME; details: 50 μM, 4 hr
# Procedure: Similar to the method outlined for HepG2 cellular pharmacology, compounds are incubated in Huh-7 cells for 4 hr at the concentration of 50 μM in triplicate. […] Ice-cold 70% methanol can be used as the extraction solvent. ddATP (10 nM) can be used as the internal standard.
# [4] = test system: nuclear DNA, HepG2 Hepatoma cells; test: Mitochondrial toxicity in HepG2 cells: nuclear DNA content; assay type: cell-based
# Procedure: This assay was used in all studies described in this application that determine the effect of nucleoside analogs on mitochondrial DNA content. In this assay, low-passage-number HepG2 cells were seeded at 5,000 cells/well in collagen-coated 96-well plates. […] On culture day 7, cellular nucleic acids were prepared by using commercially available columns (RNeasy 96 kit; Qiagen). […] The mitochondrial cytochrome c oxidase subunit II (COXII) gene and the β-actin or rRNA gene were amplified from 5 μl of the eluted nucleic acids using a multiplex Q-PCR protocol with suitable primers and probes for both target and reference amplifications. […] For exon 3 of the β-actin gene (GenBank accession number E01094) the sense, probe, and antisense primers are 5′-[…]-3′,5′-6-[…]-3′ and 5′-[…]-3′, respectively. The primers and probes for the rRNA gene are commercially available from Applied Biosystems. […] The comparative CT method uses arithmetic formulas in which the amount of target (COXII gene) is normalized to the amount of an endogenous reference (the β-actin or rRNA gene) and is relative to a calibrator (a control with no drug at day 7). The arithmetic formula for this approach is given by 2-ΔΔCT, where ΔΔCT is (CT for average target test sample−CT for target control)−(CT for average reference test−CT for reference control) (see Johnson M R, K Wang, J B Smith, M J Heslin, R B Diasio. Quantitation of dihydropyrimidine dehydrogenase expression by real-time reverse transcription polymerase chain reaction. Anal. Biochem. 2000; 278:175-184). A decrease in mitochondrial DNA content in cells grown in the presence of drug would indicate mitochondrial toxicity.
# as §2
# [5] = Huh-7, 120 h, HCV Replicon (Huh7), five days incubation, read-out: EC50
# [6] = Huh 7 Clone B cells containing HCV replicon RNA
# [7] = 1 μM, HepG2 Hepatoma cells, 14 day assay
# [8] = 10 μM, HepG2 Hepatoma cells, 14 day assay
# [9] = 50 μM, HepG2 Hepatoma cells, 14 day assay
smiles,measurement,setting,value
CCOC(=O)[C@H](C)NP(=O)(OC[C@@H]1OC[C@H](n2cnc3c(N)nc(N)nc32)O1)Oc1ccccc1 (stereo partly drawn) [RS-864],intracellular level of DAPD,PBM cells,low levels
same,intracellular level of DAPD-TP / phosphorylated forms of DAPD,PBM cells,very high levels
same,intracellular level of DXG-TP,PBM cells,low levels
same,ratio of DXG-TP (6-OH) to DAPD-TP (6-NH2),PBM cells; LC/MS/MS,2 to 98
CC1(O)C(O)[C@@H](CO)O[C@H]1n1cnc2c(N)nc(N)nc21 (stereo partly drawn) [drawing 55],EC50,[1]; [5],3.7 µM
same,EC90,"[1]; Huh-7, 120 h, HCV Replicon (Huh7), five days incubation, read-out: EC90",11 µM
same,CC50 at 5 day,[2]; [6],> 10 µM
CCOC(=O)[C@H](C)NP(=O)(OC[C@H]1O[C@@H](n2cnc3c(N)nc(N)nc32)C(C)(O)C1O)Oc1ccccc1 (stereo partly drawn) [drawing 56],EC50,"[1]; Huh-7, 120 h",1.3 µM
same,EC90,"[1]; Huh-7, 120 h",4.9 µM
same,CC50 at 5 day,[2],> 10 µM
"CCOC(=O)[C@H](C)NP(=O)(OCC1O[C@@H](n2cnc3c(N)nc(N)nc32)C(C)(O)C1O)Oc1ccccc1 (stereo in doubt) [Compound 8a, (2S)-ethyl 2-((((2S,3R,4R,5R)-5-(2,6-diamino-9H-purin-9-yl)-3,4-dihydroxy-4-methyltetrahydrofuran-2-yl)methoxy)(phenoxy)phosphorylamino)propanoate]",effect on nuclear or mitochondrial DNA or lactic acid production,"[3]; up to 50 μM, HepG2 Hepatoma cells, 14 day assay, summary also covers nuclear DNA and lactic acid",no significant effect
same,intracellular guanine analog triphosphate,Huh7 cells,also detected
same,"intracellular level of 2,6-diamino-2′-C-Me purine triphosphate",Huh7 cells,unexpectedly high levels
CCOC(=O)[C@H](C)NP(=O)(OC[C@H]1O[C@@H](n2cnc3c(N)nc(N)nc32)C(C)(O)C1O)Oc1ccccc1 (stereo partly drawn) [drawing 51],% Inhibition nuclear DNA,[4]; [7],4.0%
same,% Inhibition nuclear DNA,[4]; [8],20%
same,% Inhibition nuclear DNA,[4]; [9],< 1%
same,% Inhibition MtDNA,[3]; [7],< 1%
same,% Inhibition MtDNA,[3]; [8],5.4%
same,% Inhibition MtDNA,[3]; [9],< 1%
CCOC(=O)CCc1ccccc1O[P@](=O)(N[C@@H](C)C(=O)OCC)OC[C@H]1O[C@@H](n2cnc3c(N)nc(N)nc32)C(C)(O)C1O (stereo partly drawn),EC50,"[1]; Huh-7, 120 h",2.3 µM
same,EC90,"[1]; Huh-7, 120 h",7.7 µM
same,CC50 at 5 day,[2],> 3 µM
"CC1(O)C(O)[C@@H](CO)O[C@H]1n1cnc2c(N)nc(N)nc21 (stereo partly drawn) [Compound 12, 2,6-diamino-2′-C-Me purine nucleoside]",intracellular guanine analog triphosphate,Huh7 cells,major triphosphate detected
same,"intracellular level of 2,6-diamino-2′-C-Me purine triphosphate",Huh7 cells,extremely low levels
CCOC(=O)CCc1ccccc1OP(=O)(N[C@@H](C)C(=O)OCC)OC[C@H]1O[C@@H](n2cnc3c(N)nc(N)nc32)C(C)(F)C1O (stereo partly drawn),EC50,"[1]; Huh-7, 120 h",0.7 µM
same,EC90,"[1]; Huh-7, 120 h",2.9 µM
same,CC50 at 5 day,[2],> 10 µM
CCOC(=O)CCc1ccccc1OP(=O)(N[C@H](C)C(=O)OCC)OC[C@H]1O[C@@H](n2cnc3c(N)nc(N)nc32)C(C)(O)C1O (stereo partly drawn) [drawing 49],% Inhibition nuclear DNA,[4]; [7],30%
same,% Inhibition nuclear DNA,[4]; [8],16%
same,% Inhibition nuclear DNA,[4]; [9],10%
same,% Inhibition MtDNA,[3]; [7],24%
same,% Inhibition MtDNA,[3]; [8],34%
same,% Inhibition MtDNA,[3]; [9],43%
CC1(O)C(O)[C@@H](CO)O[C@H]1n1cnc2c(N)nc(N)nc21 (stereo partly drawn) [drawing 50],% Inhibition nuclear DNA,"[4]; human, 14 day, 1 μM",22%
same,% Inhibition nuclear DNA,"[4]; human, 14 day, 10 μM",46%
same,% Inhibition nuclear DNA,"[4]; human, 14 day, 50 μM",21%
same,% Inhibition MtDNA,"[3]; human, 14 day, 1 μM",< 1%
same,% Inhibition MtDNA,"[3]; human, 14 day, 10 μM",< 1%
same,% Inhibition MtDNA,"[3]; human, 14 day, 50 μM",< 1%
CCOC(=O)CCc1ccccc1O[P@@](=O)(N[C@@H](C)C(=O)OCC)OC[C@H]1O[C@@H](n2cnc3c(N)nc(N)nc32)C(C)(O)C1O (stereo partly drawn),EC50,"[1]; Huh-7, 120 h",0.2 µM
same,EC90,"[1]; Huh-7, 120 h",0.7 µM
same,CC50 at 5 day,[2],> 10 µM
Nc1nc(N)c2ncn([C@H]3CO[C@@H](CO)O3)c2n1 [DAPD],intracellular level of DAPD,PBM cells,Low levels
same,intracellular level of DAPD-TP / phosphorylated forms of DAPD,PBM cells,no phosphorylated forms of DAPD were detected
same,intracellular level of DXG-TP,PBM cells,high levels
CC(C)OC(=O)CCNC(=O)[C@@H]1OP(=O)(OC[C@H]2O[C@@H](n3cnc4c(N)nc(N)nc43)C(C)(O)C2O)OCC1(C)C (stereo partly drawn),EC50,[1]; [5],> 10 µM
same,EC50,"[1]; Huh-7, HCV Replicon (Huh7), second line printed as EC50 in the entry, read-out: EC50",> 10 µM
same,CC50 at 5 day,[2]; [6],> 10 µM
